From ChEMBL document CHEMBL1138998, “A topological function based on spectral moments for predicting affinity toward A3 adenosine receptors” (Bioorg Med Chem Lett, 2006)

molecular target: T1, Adenosine receptor A3 (Rattus norvegicus, UniProt P28647); assay: Displacement of [125I]AB-MECA from rat adenosine A3 receptor expressed in CHO cells; type: cell-based
T1 sequence (P28647 whole entry): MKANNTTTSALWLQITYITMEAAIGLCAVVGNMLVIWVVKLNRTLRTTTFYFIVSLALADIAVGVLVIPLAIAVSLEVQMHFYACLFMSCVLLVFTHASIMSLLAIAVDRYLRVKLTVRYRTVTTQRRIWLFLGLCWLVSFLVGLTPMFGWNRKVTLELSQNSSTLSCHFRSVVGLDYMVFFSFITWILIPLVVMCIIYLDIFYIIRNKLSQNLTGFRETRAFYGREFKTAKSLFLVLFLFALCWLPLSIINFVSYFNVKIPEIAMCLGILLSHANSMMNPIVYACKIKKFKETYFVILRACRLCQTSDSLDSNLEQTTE

Row | Structure (SMILES) | Ki
1 | CCNC(=O)[C@H]1O[C@@H](n2cnc3c(NC(=O)Nc4ccc(S(=O)(=O)Nc5cc(C)on5)cc4)ncnc32)[C@H](O)[C@@H]1O | 155 nM
2 | CCNC(=O)[C@H]1O[C@@H](n2cnc3c(NC(=O)Nc4ccc(S(=O)(=O)Nc5ccccn5)cc4)ncnc32)[C@H](O)[C@@H]1O | 54.1 nM
3 | CCNC(=O)[C@H]1O[C@@H](n2cnc3c(NC(=O)Nc4ccc(S(=O)(=O)Nc5ncccn5)cc4)ncnc32)[C@H](O)[C@@H]1O | 405 nM
